Measured values reported in patent publication US9273040B2 (Merck Sharp & Dohme Corp., priority 2011, dated 2016).

How the values were obtained:
[1] = biological target: T1, human Nav1.5 channels stably expressed in HEK 293 cells (Homo sapiens, UniProt Q14524); test: PatchXpress 7000 automated patch-clamp, sodium current; type: cell-based; conditions: selectivity over Nav1.5
T1 construct: expressed in transfected cells
Text: (§1) To measure state and use-dependent sodium channel inhibition, test compounds were further characterized in an automated PatchXpress® assay (Molecular Devices). Two voltage-clamp protocols were used. 1) Use-dependent protocol: Cells were held at a membrane potential 20 mV negative to the potential at which ˜50% of the channels are inactivated (V0.5 inact). A train of 30 ms depolarizations to −20 mV was applied to the cells expressing Nav1.7 at a frequency of 10 Hz. […] Data was collected in the absence and presence of drug, and after drug washout. 2) A double-pulse protocol was used to measure inactivated state block. Cells were held at a potential 20 mV negative to V0.5 inact. A 8000 ms pre-pulse 7 mV positive to V0.5 inact was given followed by a hyperpolarizing 2 ms pulse to −120 mV and a 20 ms test pulse to −20 mV. Protocol was applied to cells in the absence, presence of compound and after washout. The temperature of PatchXpress instruments was maintained at 22° C. The following recording solutions were used. Internal solution (mM): 30 CsCl, 5 HEPES, 10 EGTA, 120 CsF, 5 NaF, 2MgCl2, pH=7.3 with CsOH, 324 mosmo. External solution (mM): 120 NMDG, 40 NaCl, 1 KCl, 0.5 MgCl2, 5 HEPES, 2.7 CaCl2, pH=7.5 with NMDG-OH.
(§2) For all electrophysiology experiments, offline analysis was used to correct for current rundown and to determine percent inhibition as a function of drug concentration. IC50 values were determined by fitting to the Hill equation.

[2] = biological target: T2, human Nav1.7 channels stably expressed in HEK 293 cells (Homo sapiens, UniProt Q15858); test: as above; type: cell-based; conditions: 22° C., read-out: potency for the Nav 1.7 sodium ion channel (as measured by PatchXpress)
T2 construct: expressed in transfected cells
T2 sequence (Q15858 whole entry): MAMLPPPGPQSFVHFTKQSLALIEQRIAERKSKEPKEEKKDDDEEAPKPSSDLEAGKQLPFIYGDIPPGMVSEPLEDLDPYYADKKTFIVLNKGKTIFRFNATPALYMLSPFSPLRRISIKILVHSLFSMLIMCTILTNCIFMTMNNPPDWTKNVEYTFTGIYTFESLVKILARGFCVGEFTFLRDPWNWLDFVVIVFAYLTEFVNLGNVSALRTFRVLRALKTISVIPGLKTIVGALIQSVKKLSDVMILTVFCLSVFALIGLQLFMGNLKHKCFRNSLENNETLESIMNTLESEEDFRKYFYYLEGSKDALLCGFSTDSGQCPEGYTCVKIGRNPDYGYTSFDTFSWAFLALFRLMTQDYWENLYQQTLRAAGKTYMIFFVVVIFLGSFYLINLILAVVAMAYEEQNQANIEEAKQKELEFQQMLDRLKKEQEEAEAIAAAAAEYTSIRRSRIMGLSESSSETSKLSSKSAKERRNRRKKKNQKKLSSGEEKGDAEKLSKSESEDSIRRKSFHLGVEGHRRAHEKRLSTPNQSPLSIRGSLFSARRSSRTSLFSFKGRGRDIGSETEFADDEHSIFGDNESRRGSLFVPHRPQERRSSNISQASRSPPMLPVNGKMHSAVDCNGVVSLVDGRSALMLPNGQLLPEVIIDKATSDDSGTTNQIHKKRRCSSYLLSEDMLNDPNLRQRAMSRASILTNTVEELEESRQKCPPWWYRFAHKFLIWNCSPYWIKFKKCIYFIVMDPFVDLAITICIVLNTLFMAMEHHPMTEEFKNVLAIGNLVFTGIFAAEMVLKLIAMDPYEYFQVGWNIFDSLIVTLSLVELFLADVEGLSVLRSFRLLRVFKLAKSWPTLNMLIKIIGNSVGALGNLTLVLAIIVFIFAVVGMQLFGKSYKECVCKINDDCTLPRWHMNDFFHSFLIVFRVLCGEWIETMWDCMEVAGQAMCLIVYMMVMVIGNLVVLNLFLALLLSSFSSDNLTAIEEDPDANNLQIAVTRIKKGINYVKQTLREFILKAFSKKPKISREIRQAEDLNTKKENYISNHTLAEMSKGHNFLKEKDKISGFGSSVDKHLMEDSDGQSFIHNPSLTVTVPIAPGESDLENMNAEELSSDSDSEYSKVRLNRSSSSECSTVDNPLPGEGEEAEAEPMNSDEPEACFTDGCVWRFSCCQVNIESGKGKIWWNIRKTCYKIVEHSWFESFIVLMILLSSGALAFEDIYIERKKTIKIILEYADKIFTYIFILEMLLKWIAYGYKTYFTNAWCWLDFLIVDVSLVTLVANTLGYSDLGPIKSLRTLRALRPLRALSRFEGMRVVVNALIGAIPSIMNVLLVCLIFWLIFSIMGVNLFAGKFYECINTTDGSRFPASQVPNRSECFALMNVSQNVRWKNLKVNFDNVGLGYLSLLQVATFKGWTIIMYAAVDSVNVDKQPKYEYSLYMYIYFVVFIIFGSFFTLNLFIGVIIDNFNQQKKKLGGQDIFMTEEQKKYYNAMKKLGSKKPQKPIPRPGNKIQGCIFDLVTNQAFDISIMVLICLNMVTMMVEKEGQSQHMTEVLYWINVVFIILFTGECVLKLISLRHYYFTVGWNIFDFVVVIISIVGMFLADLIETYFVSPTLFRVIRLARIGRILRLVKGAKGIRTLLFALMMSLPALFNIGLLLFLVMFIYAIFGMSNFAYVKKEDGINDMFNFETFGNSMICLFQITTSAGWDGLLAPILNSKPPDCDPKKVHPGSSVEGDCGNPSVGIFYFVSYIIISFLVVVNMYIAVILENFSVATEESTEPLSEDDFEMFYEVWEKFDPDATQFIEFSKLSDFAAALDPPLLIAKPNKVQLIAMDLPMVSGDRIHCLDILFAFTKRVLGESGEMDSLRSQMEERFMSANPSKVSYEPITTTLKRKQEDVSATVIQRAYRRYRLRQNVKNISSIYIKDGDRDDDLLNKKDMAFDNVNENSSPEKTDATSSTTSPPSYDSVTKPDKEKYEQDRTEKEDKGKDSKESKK
Text: as §1, §2

T1 sequence (Q14524 whole entry): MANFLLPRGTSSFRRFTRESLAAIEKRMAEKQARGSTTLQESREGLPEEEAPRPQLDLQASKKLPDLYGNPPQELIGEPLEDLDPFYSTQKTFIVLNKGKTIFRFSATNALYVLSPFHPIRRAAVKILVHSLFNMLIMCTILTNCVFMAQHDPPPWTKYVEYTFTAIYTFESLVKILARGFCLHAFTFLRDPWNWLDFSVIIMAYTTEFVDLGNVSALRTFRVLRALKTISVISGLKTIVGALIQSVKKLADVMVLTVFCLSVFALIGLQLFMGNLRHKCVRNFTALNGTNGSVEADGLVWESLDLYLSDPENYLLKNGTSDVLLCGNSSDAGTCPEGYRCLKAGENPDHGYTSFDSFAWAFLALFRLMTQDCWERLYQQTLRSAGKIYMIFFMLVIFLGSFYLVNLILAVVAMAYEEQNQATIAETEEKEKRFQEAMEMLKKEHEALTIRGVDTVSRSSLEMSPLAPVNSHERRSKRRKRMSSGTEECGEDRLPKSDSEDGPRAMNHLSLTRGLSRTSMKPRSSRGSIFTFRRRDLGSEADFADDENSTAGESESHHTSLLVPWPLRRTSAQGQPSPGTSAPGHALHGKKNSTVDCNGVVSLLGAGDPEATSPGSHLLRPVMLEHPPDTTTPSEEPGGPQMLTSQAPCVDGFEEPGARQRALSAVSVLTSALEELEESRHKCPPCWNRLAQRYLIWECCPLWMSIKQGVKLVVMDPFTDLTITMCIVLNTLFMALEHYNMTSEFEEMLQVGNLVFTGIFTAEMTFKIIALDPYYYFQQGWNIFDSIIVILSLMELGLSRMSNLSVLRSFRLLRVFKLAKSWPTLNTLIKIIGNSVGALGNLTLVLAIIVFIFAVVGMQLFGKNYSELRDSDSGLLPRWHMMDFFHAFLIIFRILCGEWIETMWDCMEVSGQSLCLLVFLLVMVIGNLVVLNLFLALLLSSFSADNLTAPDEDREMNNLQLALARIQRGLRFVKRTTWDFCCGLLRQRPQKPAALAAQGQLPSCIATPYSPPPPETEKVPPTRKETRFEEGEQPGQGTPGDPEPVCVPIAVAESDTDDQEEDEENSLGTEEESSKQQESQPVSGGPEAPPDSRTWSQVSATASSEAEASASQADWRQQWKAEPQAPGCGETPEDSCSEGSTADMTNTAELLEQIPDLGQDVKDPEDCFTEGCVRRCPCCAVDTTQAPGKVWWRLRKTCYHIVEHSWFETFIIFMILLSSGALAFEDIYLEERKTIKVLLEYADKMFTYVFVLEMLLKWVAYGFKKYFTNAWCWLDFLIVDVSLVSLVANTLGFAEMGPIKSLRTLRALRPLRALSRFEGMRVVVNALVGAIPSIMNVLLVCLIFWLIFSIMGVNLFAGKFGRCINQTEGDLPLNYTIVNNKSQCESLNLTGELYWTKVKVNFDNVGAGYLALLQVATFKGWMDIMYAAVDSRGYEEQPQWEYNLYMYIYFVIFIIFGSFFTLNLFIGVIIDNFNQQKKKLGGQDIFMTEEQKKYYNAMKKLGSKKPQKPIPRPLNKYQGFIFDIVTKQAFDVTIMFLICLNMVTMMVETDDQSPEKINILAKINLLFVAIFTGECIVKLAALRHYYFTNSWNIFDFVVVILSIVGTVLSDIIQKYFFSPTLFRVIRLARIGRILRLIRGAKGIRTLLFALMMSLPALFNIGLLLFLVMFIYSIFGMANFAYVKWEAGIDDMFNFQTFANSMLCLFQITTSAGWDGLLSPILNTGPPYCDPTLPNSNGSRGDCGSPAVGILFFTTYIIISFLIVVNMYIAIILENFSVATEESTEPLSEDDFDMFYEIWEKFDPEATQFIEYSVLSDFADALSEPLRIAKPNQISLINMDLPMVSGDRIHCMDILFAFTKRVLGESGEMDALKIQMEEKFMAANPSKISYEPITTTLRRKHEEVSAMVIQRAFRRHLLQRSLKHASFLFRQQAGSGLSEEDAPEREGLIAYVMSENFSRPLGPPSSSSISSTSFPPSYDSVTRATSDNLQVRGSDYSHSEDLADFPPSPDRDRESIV

Row | SMILES | ratio of Nav 1.5:Nav 1.7 potency, determined by PatchXpress measurement [1] | IC50 [2] [nM]
1 | CC(c1cccc2c1CNCC2)n1c(=O)oc2cc(S(=O)(=O)Nc3ncns3)c(Cl)cc21 (racemic) [Compound 34-7, (+/−)-5-chloro-2-oxo-3-[1-(1,2,3,4-tetrahydroisoquinolin-8-yl)ethyl]-N-1,2,4-thiadiazol-5-yl-2,3-dihydro-1,3-benzoxazole-6-sulfonamide] | 129 | 565
2 | CC(c1cccc2c1CN(S(C)(=O)=O)CC2)n1c(=O)oc2cc(S(=O)(=O)Nc3ncns3)c(Cl)cc21 (racemic) [Compound 36-2, (+/−)-5-chloro-3-{1-[2-(methylsulfonyl)-1,2,3,4-tetrahydroisoquinolin-8-yl]ethyl}-2-oxo-N-1,2,4-thiadiazol-5-yl-2,3-dihydro-1,3-benzoxazole-6-sulfonamide] | 13 | 334
3 | O=c1oc2cc(S(=O)(=O)Nc3nccs3)c(F)cc2n1Cc1cccc2c1CNCC2F (racemic) [Compound 43-26, (+/-)-5-fluoro-3-[(4-fluoro-1,2,3,4-tetrahydroisoquinolin-8-yl)methyl]-2-oxo-N-1,3-thiazol-2-yl-2,3-dihydro-1,3-benzoxazole-6-sulfonamide] | 150 | 141
4 | COC(=O)NC1CCc2cccc(Cn3c(=O)oc4cc(S(=O)(=O)Nc5ncns5)c(F)cc43)c2C1 (single isomer, unassigned) [Compound 23-1, methyl (8-((6-(N-(1,2,4-thiadiazol-5-yl)sulfamoyl)-5-fluoro-2-oxobenzo[d]oxazol-3(2H)-yl)methyl)-1,2,3,4-tetrahydronaphthalen-2-yl)carbamate] | 71 | 122
5 | CC(=O)OCC(=O)NC1CCc2cccc(Cn3c(=O)oc4cc(S(=O)(=O)Nc5ncns5)c(F)cc43)c2C1 (single isomer, unassigned) [Compound 23-4, (R or S)-2-[(8-{[5-fluoro-2-oxo-6-(1,2,4-thiadiazol-5-ylsulfamoyl)-1,3-benzoxazol-3(2H)-yl]methyl}-1,2,3,4-tetrahydronaphthalen-2-yl)amino]-2-oxoethyl acetate] | 97 | 310
6 | O=c1oc2cc(S(=O)(=O)Nc3ncns3)c(F)cc2n1Cc1cccc2c1CC(N1CCS(=O)(=O)CC1)CC2 (single isomer, unassigned) [Compound 23-6, (R or S)-3-{[7-(1,1-dioxidothiomorpholin-4-yl)-5,6,7,8-tetrahydronaphthalen-1-yl]methyl}-5-fluoro-2-oxo-N-1,2,4-thiadiazol-5-yl-2,3-dihydro-1,3-benzoxazole-6-sulfonamide] | 146 | 206
7 | NC1CCc2cccc(Cn3c(=O)oc4cc(S(=O)(=O)Nc5ncns5)ccc43)c2C1 (single isomer, unassigned) [Compound 23-10, (R or S)-3-[(7-amino-5,6,7,8-tetrahydronaphthalen-1-yl)methyl]-2-oxo-N-1,2,4-thiadiazol-5-yl-2,3-dihydro-1,3-benzoxazole-6-sulfonamide] | 167 | 179
8 | NC1CCc2cccc(Cn3c(=O)oc4cc(S(=O)(=O)Nc5ncns5)ccc43)c2C1 (single isomer, unassigned) [Compound 23-14, (S or R)-3-[(7-amino-5,6,7,8-tetrahydronaphthalen-1-yl)methyl]-2-oxo-N-1,2,4-thiadiazol-5-yl-2,3-dihydro-1,3-benzoxazole-6-sulfonamide] | 393 | 75
9 | C[C@H](c1cccc2c1CC(N)CC2)n1c(=O)oc2cc(S(=O)(=O)Nc3ncns3)c(F)cc21 (single isomer, unassigned) [Compound 23-25, (R or S)-3-[(1R)-1-(7-amino-5,6,7,8-tetrahydronaphthalen-1-yl)ethyl]-5-fluoro-2-oxo-N-1,2,4-thiadiazol-5-yl-2,3-dihydro-1,3-benzoxazole-6-sulfonamide] | 203 | 15
10 | NC1CCc2cccc(Cn3c(=O)oc4cc(S(=O)(=O)Nc5ncns5)c(F)cc43)c2C1 (single isomer, unassigned) [Compound 23-27, (S or R)-3-[(7-amino-5,6,7,8-tetrahydronaphthalen-1-yl)methyl]-5-fluoro-2-oxo-N-1,2,4-thiadiazol-5-yl-2,3-dihydro-1,3-benzoxazole-6-sulfonamide] | 29 | 6
11 | O=c1oc2cc(S(=O)(=O)Nc3nccs3)c(F)cc2n1Cc1cccc2c1CNCC2F (single isomer, unassigned) [Compound 43-27, (R or S)-5-fluoro-3-[(4-fluoro-1,2,3,4-tetrahydroisoquinolin-8-yl)methyl]-2-oxo-N-1,3-thiazol-2-yl-2,3-dihydro-1,3-benzoxazole-6-sulfonamide] | 282 | 106
12 | O=c1oc2cc(S(=O)(=O)Nc3nccs3)c(F)cc2n1Cc1cccc2c1CNCC2F (single isomer, unassigned) [Compound 43-28, (S or R)-5-fluoro-3-[(4-fluoro-1,2,3,4-tetrahydroisoquinolin-8-yl)methyl]-2-oxo-N-1,3-thiazol-2-yl-2,3-dihydro-1,3-benzoxazole-6-sulfonamide] | 684 | 120
13 | O=c1oc2cc(S(=O)(=O)Nc3ncns3)c(F)cc2n1Cc1ccccc1 [Compound 11-7, 3-benzyl-5-fluoro-2-oxo-N-1,2,4-thiadiazol-5-yl-2,3-dihydro-1,3-benzoxazole-6-sulfonamide] | 55 | 545
14 | O=c1oc2cc(S(=O)(=O)Nc3ncns3)c(F)cc2n1C[C@H]1C[C@@H]1I [Compound 11-9, 5-fluoro-3-{[(1R,2S)-2-iodocyclopropyl]methyl}-2-oxo-N-1,2,4-thiadiazol-5-yl-2,3-dihydro-1,3-benzoxazole-6-sulfonamide] | 56 | 301
15 | O=c1oc2cc(S(=O)(=O)Nc3ncns3)c(F)cc2n1CC1CC1c1ccccc1 (centres unmarked) [Compound 11-10, 5-fluoro-2-oxo-3-[(2-phenylcyclopropyl)methyl]-N-1,2,4-thiadiazol-5-yl-2,3-dihydro-1,3-benzoxazole-6-sulfonamide] | 123 | 44
16 | Cn1cc2cccc(Cn3c(=O)oc4cc(S(=O)(=O)Nc5ncns5)c(F)cc43)c2n1 [Compound 11-11, 5-fluoro-3-[(2-methyl-2H-indazol-7-yl)methyl]-2-oxo-N-1,2,4-thiadiazol-5-yl-2,3-dihydro-1,3-benzoxazole-6-sulfonamide] | 81 | 490
17 | O=c1oc2cc(S(=O)(=O)Nc3ncns3)c(F)cc2n1Cc1cccc2cncn12 [Compound 11-12, 5-fluoro-3-(imidazo[1,5-a]pyridin-5-ylmethyl)-2-oxo-N-1,2,4-thiadiazol-5-yl-2,3-dihydro-1,3-benzoxazole-6-sulfonamide] | 368 | 81
18 | O=c1oc2cc(S(=O)(=O)Nc3ncns3)c(F)cc2n1Cc1cccc2c1C1CC1C=C2 (centres unmarked) [Compound 11-13, 3-(1a,7b-dihydro-1H-cyclopropa[a]naphthalen-7-ylmethyl)-5-fluoro-2-oxo-N-1,2,4-thiadiazol-5-yl-2,3-dihydro-1,3-benzoxazole-6-sulfonamide] | 50 | 49
19 | CC(c1cccc(-c2ccnn2C)c1)n1c(=O)oc2cc(S(=O)(=O)Nc3ncns3)c(F)cc21 (centres unmarked) [Compound 13-10, 5-fluoro-3-{1-[3-(1-methyl-1H-pyrazol-5-yl)phenyl]ethyl}-2-oxo-N-1,2,4-thiadiazol-5-yl-2,3-dihydro-1,3-benzoxazole-6-sulfonamide] | 256 | 63
20 | O=c1oc2cc(S(=O)(=O)Nc3ncns3)c(F)cc2n1[C@H](CO)c1ccccc1 [Compound 13-12, 5-fluoro-3-[(1S)-2-hydroxy-1-phenylethyl]-2-oxo-N-1,2,4-thiadiazol-5-yl-2,3-dihydro-1,3-benzoxazole-6-sulfonamide] | > 71 | 422
21 | C[C@H](c1cccc2ccncc12)n1c(=O)oc2cc(S(=O)(=O)Nc3ncns3)ccc21 [Compound 14-7, (R)-3-(1-(isoquinolin-8-yl)ethyl)-2-oxo-N-(1,2,4-thiadiazol-5-yl)-2,3-dihydrobenzo[d]oxazole-6-sulfonamide] | 749 | 40
22 | C[C@H](c1cccc2ccncc12)n1c(=O)oc2cc(S(=O)(=O)Nc3ncns3)c(F)cc21 [Compound 14-8, 5-fluoro-3-[(1R)-1-isoquinolin-8-ylethyl]-2-oxo-N-1,2,4-thiadiazol-5-yl-2,3-dihydro-1,3-benzoxazole-6-sulfonamid] | 114 | 71
